In US20150150765A1, “VOLATILE OIL FOR COSMETICS” (NOF Corporation, priority 2012, published 2015):

How the values were obtained:
[1] = evaluation of moisture retention (amount of moisture in stratum corneum, SKICON-200EX); assay type: in vivo; settings: inside human forearm, two hours after applying 10 μL; blank = 100%; above 100% = improvement
Protocol: [Evaluation of Moisture Retention]
With the volatile oil for external preparations for skin of the present invention, the amount of moisture in a stratum corneum was measured by the method shown below, and the amount of moisture (moisture retention) was evaluated.
(Measuring Equipment) SKICON-200EX (from I.B.S. Co., Ltd.)
(§1) (Measuring Conditions) Temperature of 20° C., Humidity of 40%
(Testing Method) Samples are applied inside a human forearm, and the amount of moisture is measured after two hours.
(§2) (Applying Various Oils and Preparing Tests)
(§3) (1) The measurement site of a subject is washed with neutral detergent and tap water and then dried. The subject goes in the constant temperature and humidity chamber 30 min. before measurement to allow the measurement site to get used to the environment inside the chamber.
(2) Before applying samples, the amount of moisture is measured at a site to be applied that is marked in a circle 1 cm in diameter.
(3) Samples are dropped by 10 μL with a micropipette onto a measurement site that is marked in a circle with 1 cm in diameter, and are applied to skin at the marking site.
(4) The amount of moisture is measured at the measurement site two hours after being applied.
(Assessment) With the amount of water at measurement sites with no oil treatment (blanks) as 100%, the amount of moisture was evaluated after being treated with each sample. […]

[2] = evaluation of barrier property (evaporated water quantity, Tewameter); assay type: in vivo; settings: inside human forearm, two hours after applying 10 μL; blank = 100%; below 100% = improvement
Protocol: [Evaluation of Barrier Property]
With the volatile oil for external preparations for skin of the present invention, an evaporated water quantity in a stratum corneum was measured by the method shown below, and the evaporated water quantity (barrier property) was evaluated.
(Measuring Equipment) Tewameter™210 (from Courage+Kahazaka Co., Ltd.)
as §1
(Testing Method) Samples are applied inside a human forearm, and an evaporated water quantity is measured after two hours.
as §2, §3
(2) Before applying samples, an evaporated water quantity is measured at a site to be applied that is marked in a circle 1 cm in diameter. […]
(4) The evaporated water quantity is measured at the measurement site two hours after being applied.
(Assessment) With the evaporated water quantity at measurement sites with no oil treatment (blanks) as 100%, the evaporated water quantity was evaluated after being treated with each sample. […]

hair tensile strength = settings: breaking load of healthy human hair, untreated with oil (blank) = 100%; above 100% = improvement; 25° C.
Protocol: (Measuring Equipment) FUDOH RHEO METER RTC from Rheotech Co., Ltd. (Measuring Condition) Measurement environment: Inside constant temperature chamber at 25° C.
(Hair Employed) Healthy Human Hair
as §2
Beforehand, a bundle of unbleached healthy hair for measurement is placed in a constant temperature chamber for one day.
(§4) (1) One hair is picked out of the bundle of human hair. Each sample is dropped onto an index finger cushion from a syringe, and is blended with a thumb.
(§5) (2) The picked hair is pinched between the index finger and the thumb, and is coated with a sample from its root to the end.
(3) After the sample is coated, excess oil is wiped off with a waste cloth made of paper (Trade Name: Kim Wipes).
(4) After ten human hairs are treated with each sample, hair diameter is measured with a diameter.
(5) The hair is fixed with a jag of an equipment, and is given a load by lowering a base onto which the hair is fixed.
(6) The load is recorded when the hair is broken by the load.
(Assessment) With the tensile strength of hair untreated with oil (blank) as 100%, tensile strength was evaluated after being treated with each sample. If there is an improvement in comparison with the blank, the number would be higher than 100%.

[3] = evaluation of smoothness of skin (MIU friction resistance of skin surface); assay type: in vivo; settings: coefficient of friction of skin, inside upper arm, before oil treatment = 100%; below 100% = improvement
Protocol: (§6) [Evaluation of Smoothness]
With the volatile oil for external preparations for skin of the present invention, coefficients of friction were measured by the following method, and the improvement of smoothness when applied to skin was evaluated.
Method of Evaluating Smoothness (Improvement after Treating Skin with Each Sample)
(§7) (Evaluation) MIU (Resistance: μ): Friction resistance of skin surface (Measuring Equipment) Friction tester (from Kato Tech Co., Ltd.) (Measuring Conditions) Measurement environment at 20° C.; 40% of Humidity; Constant temperature and humidity chamber; Measurement site: Inside upper arm; Contactor: Silicon rubber; Load: 25 gf
as §2, §3
(2) Coefficients of friction at sites to be applied are measured before applying samples. […]
(4) After the samples are applied, the coefficients of friction at applied sites are measured every thirty minutes.
(Assessment) With the coefficient of friction at measurement sites before oil treatment as 100%, smoothness was evaluated after being treated with each sample. […]

[4] = order of volatility, sample spread on filter paper and dried; assay type: physicochemical; settings: 0.1 g on filter paper of 110 mm diameter; rank by speed to be completely dry (1 = fastest)
Protocol: It is noted that for the order of volatility in Table 1, 0.1 g of each sample was spread on a filter paper of 110 mm in diameter, and the weight was measured after drying for two hours. Ranking was based on the order of the speed that it took the samples to be completely dry and 0 g in weight.

[5] = evaluation of skin viscoelasticity (Cutometer); assay type: in vivo; settings: inside human forearm, two hours after applying 10 μL; blank = 100%; above 100% = improvement
Protocol: [Evaluation of Skin Viscoelasticity]
With the volatile oil for external preparations for skin of the present invention, skin viscoelasticity was measured by the method shown below, and the skin viscoelasticity was evaluated.
(Measuring Equipment) Cutometer (from I.B.S. Co., Ltd.)
as §1
(Testing Method) Samples are applied inside a human forearm, and viscoelasticity is measured after two hours.
as §2, §3
(2) Before applying samples, viscoelasticity is measured at a site to be applied that is marked in a circle with 1 cm in diameter.
(3) Samples are dropped by 10 μL with a micropipette onto a measurement site that is marked in a circle with 1 cm in diameter, and are applied, to skin at the marking site.
(4) The viscoelasticity is measured at the measurement site two hours after being applied.
(Assessment) With the […] at measurement sites with no oil treatment (blanks) as 100%, skin viscoelasticity was evaluated after being treated with each sample. […]

[6] = evaluation of smoothness of hair (MIU friction resistance of hair surface); parameters: species or system human; settings: coefficient of friction of bleached hair, hair untreated with oil = 100%; below 100% = improvement; 20° C., 40% humidity
Protocol: as §6
With the volatile oil for hair cosmetics of the present invention, coefficients of friction were measured by the method shown below, and the improvement of smoothness, when applied to hair, was evaluated.
Method of Evaluating Smoothness (Improvement after Treating Bleached Hair with Each Sample)
as §7, with “hair” for “skin”, “Number of hair for measurement: ten;” for “Measurement site: Inside upper arm;”, “gf (Hair Employed) Bleached healthy human hair that was purchased” for “gf”
as §2, §4, §5
(3) After the sample is coated, excess sample is wiped off with a waste cloth made of paper (Trade Name: Kim Wipes). […]
(Assessment) With the coefficient of friction of hair untreated with oil as 100%, smoothness is evaluated after being treated with each sample. […]

Row | Compound | water quantity in stratum corneum (%) [1] [%] | evaporated water quantity (%) [2] [%] | tensile strength (%) (hair tensile strength) | smoothness (%) [3] [%] | order of volatility [4] | skin viscoelasticity (%) [5] [%] | smoothness (%) [6] [%]
1 | C[Si]1(C)O[Si](C)(C)O[Si](C)(C)O[Si](C)(C)O[Si](C)(C)O1 [compound 1] | 120 | 106 | 120 | 108 | 3 | 95 | 83
2 | CC(CC(C)(C)C)CC(C)(C)C [compound 2, 2,2,4,6,6-pentamethylheptane] | 112 | 105 | 125 | 104 | 1 | 97 | 78
